Source: patent publication US9566312B2, “Cyclic peptides and use as medicines” (priority 2012, dated 2017)
Like-named read-outs stand apart in the source and are kept apart here. Starred links: 1 amine or outer side, 2 acyl side, 3 side chain; linkers in the order of their positions; H or OH if unused. Non-standard residues stand in square brackets, D forms with d. Residues, ends and D or L forms follow the SMILES beside them. X12 = C[C@@H](CN1CCN(C2CCC2)CC1)[C@@H](C(=O)[*:2])N(C)[*:1]; X22 = C[C@H](CN1CCN(C2CCC2)CC1)[C@@H](C(=O)[*:2])N(C)[*:1]; X6 = C[C@@H](CN1CCN(C2COC2)CC1)[C@@H](C(=O)[*:2])N(C)[*:1]; X79 = COCCN1CCN(CC[C@@H](C)[C@@H](C(=O)[*:2])N(C)[*:1])CC1; X19 = COCCN1CCN(C[C@H](C)[C@@H](C(=O)[*:2])N(C)[*:1])CC1; NMe(dihydroBmt) = CCCC[C@@H](C)[C@@H](O)[C@H](NC)C(=O)O; X23 = COC1CN(C[C@@H](C)[C@@H](C(=O)[*:2])N(C)[*:1])C1; X20 = C[C@H](CCCN1CCOCC1)[C@@H](C(=O)[*:2])N(C)[*:1]; X18 = C[C@H](CCC(C)(C)O)[C@@H](C(=O)[*:2])N(C)[*:1]; X9 = C[C@@H](CN1CCOCC1)[C@@H](C(=O)[*:2])N(C)[*:1]; MeBmt = C/C=C/C[C@@H](C)[C@@H](O)[C@H](NC)C(=O)O; X13 = C[C@H](CC#N)[C@@H](C(=O)[*:2])N(C)[*:1]; NMeL = CN[C@@H](CC(C)C)C(=O)O; NMeV = CN[C@H](C(=O)O)C(C)C; dNMeA = CN[C@H](C)C(=O)O; Abu = CC[C@H](N)C(=O)O

Assays:
[1] = test system: genotype 1b subgenomic HCV replicon in Huh7.5 cells; format: cell-based, hepatitis C virus; details: read-out: RPLN-1b IC50
Procedure, shortened: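 Replicon inhibition read as renilla luciferase signal versus DMSO controls after 72 h incubation, in Huh7.5 cells harbouring a genotype 1b subgenomic replicon; medium phenol red-free DMEM lacking G418. CC50 determined in parallel via Cell Titer-Glo.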

cyclophilin A (CypA) = cyclophilin A (CypA) (Homo sapiens (Human), UniProt P62937); experiment: Inhibitor binding to cyclophilin proteins by SPR, CypA; design: unit not given here; details: 1:1 binding model;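 also: Single-cycle kinetics on a Biacore T200, compound injected at several concentrations for 1 min each at 50 µL/min, then 10 min dissociation, in HEPES pH 7.4 buffer with 3% DMSO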
Sequence of cyclophilin A (CypA) (P62937 whole entry): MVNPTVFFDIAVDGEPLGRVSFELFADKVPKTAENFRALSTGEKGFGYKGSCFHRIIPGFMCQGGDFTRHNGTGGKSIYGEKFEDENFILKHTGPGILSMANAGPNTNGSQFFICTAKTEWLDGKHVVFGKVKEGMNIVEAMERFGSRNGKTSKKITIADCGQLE

[2] = test system: peripheral blood mononuclear cells (PBMC); experiment: Anti-proliferative or immunosuppressive activity, BrdU incorporation in PHA-stimulated PBMC; format: cell-based; details: PHA 3 μg/ml, 60 hour compound treatment; read-out: EMV PBMC IC50
Procedure, shortened: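 BrdU ELISA read-out of DNA synthesis in freshly isolated PBMCs (two donors, 30,000 cells/well, X-VIVO 15). T-cell proliferation triggered with phytohemagglutinin at 3 μg/ml.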

cyclophilin B (CypB) = cyclophilin B (CypB) (Homo sapiens (Human), UniProt P23284); experiment: Inhibitor binding to cyclophilin proteins by SPR, CypB; design: unit not given here; details: 1:1 binding model
Sequence of cyclophilin B (CypB) (P23284 34-216): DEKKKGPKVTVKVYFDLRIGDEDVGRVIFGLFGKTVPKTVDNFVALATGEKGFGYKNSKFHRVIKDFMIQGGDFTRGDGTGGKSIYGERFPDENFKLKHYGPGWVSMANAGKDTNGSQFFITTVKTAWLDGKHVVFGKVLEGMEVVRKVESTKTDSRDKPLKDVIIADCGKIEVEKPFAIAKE
Procedure, shortened: (§1)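 Mono-biotinylated avi-tagged cyclophilins were captured on a Biotin CAPture chip and compound injected by single-cycle kinetics in 10 mM HEPES pH 7.4, 150 mM NaCl, 0.05% P20, 3% DMSO. Contact 1 min per concentration at 50 μL/min, 10 min final dissociation; 1:1 model fit gave kon, koff, KD.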

CypF = CypF (Homo sapiens (Human), UniProt P30405); experiment: Inhibitor binding to cyclophilin proteins by SPR, CypF; details: 1:1 binding model
Sequence of CypF (P30405 30-207): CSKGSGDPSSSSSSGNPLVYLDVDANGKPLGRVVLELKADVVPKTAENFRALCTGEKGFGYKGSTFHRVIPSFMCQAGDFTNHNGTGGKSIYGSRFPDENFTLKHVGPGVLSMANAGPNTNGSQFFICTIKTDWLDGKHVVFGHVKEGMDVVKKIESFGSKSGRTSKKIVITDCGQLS
Procedure, shortened: as §1

CYP3A4 = CYP3A4 (Homo sapiens (Human), UniProt P08684); experiment: Time-dependent inhibition of CYP3A4;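 also: Two-step in vitro assay, kobs derived from residual CYP3A4 activity versus preincubation time per concentration, then kinact and KI by nonlinear fit of kobs against concentration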
Sequence of CYP3A4 (P08684 whole entry): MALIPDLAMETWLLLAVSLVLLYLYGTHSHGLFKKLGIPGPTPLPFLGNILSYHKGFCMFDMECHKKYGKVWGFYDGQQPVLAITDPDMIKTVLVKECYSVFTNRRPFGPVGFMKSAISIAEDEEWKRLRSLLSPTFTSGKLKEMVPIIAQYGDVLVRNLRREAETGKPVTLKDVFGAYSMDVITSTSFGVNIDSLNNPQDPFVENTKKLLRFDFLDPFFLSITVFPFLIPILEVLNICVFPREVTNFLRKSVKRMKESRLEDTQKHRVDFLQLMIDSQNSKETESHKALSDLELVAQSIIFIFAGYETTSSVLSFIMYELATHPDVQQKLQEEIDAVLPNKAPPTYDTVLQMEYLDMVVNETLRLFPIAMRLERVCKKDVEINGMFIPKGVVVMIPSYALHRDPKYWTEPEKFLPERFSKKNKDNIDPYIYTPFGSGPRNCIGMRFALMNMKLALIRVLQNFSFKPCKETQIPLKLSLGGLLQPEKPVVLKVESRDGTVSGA

[3] = target: organic anion transporting polypeptide 1B1 (OATP1B1) (Homo sapiens (Human), UniProt Q9Y6L6); experiment: OATP assay in CHO-OATP1B1 cells;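 also: inhibition of probe substrate uptake into the cells, ten minutes exposure, accumulated substrate read by fluorescence once cells were lysed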
Sequence of organic anion transporting polypeptide 1B1 (OATP1B1) (Q9Y6L6 whole entry): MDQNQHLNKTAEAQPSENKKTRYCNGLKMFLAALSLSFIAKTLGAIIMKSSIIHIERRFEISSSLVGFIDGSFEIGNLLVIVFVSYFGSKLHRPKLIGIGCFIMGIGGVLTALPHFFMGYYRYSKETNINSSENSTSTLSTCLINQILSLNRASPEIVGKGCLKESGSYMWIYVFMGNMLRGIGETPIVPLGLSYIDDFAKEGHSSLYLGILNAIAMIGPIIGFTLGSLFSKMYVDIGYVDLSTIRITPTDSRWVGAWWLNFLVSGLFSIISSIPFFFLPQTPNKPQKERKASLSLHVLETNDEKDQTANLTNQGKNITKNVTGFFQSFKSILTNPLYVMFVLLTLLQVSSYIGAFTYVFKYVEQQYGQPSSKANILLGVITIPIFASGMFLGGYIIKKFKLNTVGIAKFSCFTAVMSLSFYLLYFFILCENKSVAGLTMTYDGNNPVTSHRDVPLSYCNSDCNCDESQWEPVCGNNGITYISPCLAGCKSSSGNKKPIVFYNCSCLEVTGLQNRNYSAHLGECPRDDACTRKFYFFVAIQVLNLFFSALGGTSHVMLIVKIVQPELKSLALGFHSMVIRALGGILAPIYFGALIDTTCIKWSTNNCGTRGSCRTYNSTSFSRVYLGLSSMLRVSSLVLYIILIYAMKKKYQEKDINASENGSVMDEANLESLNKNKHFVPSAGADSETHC

[4] = genotype 1b replicon, 72 h incubation

Compound | IC50 [1, 4] | CypA Kd (cyclophilin A (CypA)) | IC50 [2] | CypB Kd (cyclophilin B (CypB)) | CypF Kd (CypF) | Ki (CYP3A4) | IC50 [3] | IC50 [1] | NIM TDI kinact/Ki (CYP3A4; probe substrate midazolam)
C/C=C/C[C@@H](C)[C@@H](O)[C@H]1C(=O)N[C@@H](CC)C(=O)N(C)[C@H](C)C(=O)N(C)[C@@H]([C@@H](C)CN2CCOCC2)C(=O)N[C@@H](C(C)C)C(=O)N(C)[C@@H](CC(C)C)C(=O)N[C@@H](C)C(=O)N[C@H](C)C(=O)N(C)[C@@H](CC(C)C)C(=O)N(C)[C@@H](CC(C)C)C(=O)N(C)[C@@H](C(C)C)C(=O)N1C [Compound 2.17.1, 3-[D-Ala]-4[(2S,3S)-2-Amino-3-methyl-4-morpholin-4-yl-butanoyl]-cyclosporin] (cyclo(A[dA][NMeL][NMeL][NMeV][MeBmt][Abu][dNMeA][X9]V[NMeL])) | 0.029 µM | 0.6 | 18 µM | 0.4 | 0.0003 µM | > 50 µM | 3.6 µM | – | –
C/C=C/C[C@@H](C)[C@@H](O)[C@H]1C(=O)N[C@@H](CC)C(=O)N(C)[C@H](C)C(=O)N(C)[C@@H]([C@H](C)CC#N)C(=O)N[C@@H](C(C)C)C(=O)N(C)[C@@H](CC(C)C)C(=O)N[C@@H](C)C(=O)N[C@H](C)C(=O)N(C)[C@@H](CC(C)C)C(=O)N(C)[C@@H](CC(C)C)C(=O)N(C)[C@@H](C(C)C)C(=O)N1C [Compound 2.10, 3-[D-Ala]-4-[(2S,3R)-4-cyano-3-methyl-2-(methylamino)butanoyl]-cyclosporin] (cyclo(A[dA][NMeL][NMeL][NMeV][MeBmt][Abu][dNMeA][X13]V[NMeL])) | 0.027 µM | 1.2 | 12.9 µM | 0.5 | 0.0005 µM | > 50 µM | 0.9 µM | – | –
C/C=C/C[C@@H](C)[C@@H](O)[C@H]1C(=O)N[C@@H](CC)C(=O)N(C)[C@H](C)C(=O)N(C)[C@@H]([C@H](C)CCN2CCN(CCOC)CC2)C(=O)N[C@@H](C(C)C)C(=O)N(C)[C@@H](CC(C)C)C(=O)N[C@@H](C)C(=O)N[C@H](C)C(=O)N(C)[C@@H](CC(C)C)C(=O)N(C)[C@@H](CC(C)C)C(=O)N(C)[C@@H](C(C)C)C(=O)N1C [Compound 2.18.3, 3-[D-Ala]-4-[(2S,3R)-5-(4-(2-methoxyethyl)piperazin-1-yl)-3-methyl-2-(methylamino)pentanoyl]-cyclosporin] (cyclo(A[dA][NMeL][NMeL][NMeV][MeBmt][Abu][dNMeA][X79]V[NMeL])) | 0.073 µM | 0.9 | 11.1 µM | 0.6 | 0.0005 µM | > 50 µM | 9.1 µM | – | –
C/C=C/C[C@@H](C)[C@@H](O)[C@H]1C(=O)N[C@@H](CC)C(=O)N(C)[C@H](C)C(=O)N(C)[C@@H]([C@H](C)CN2CC(OC)C2)C(=O)N[C@@H](C(C)C)C(=O)N(C)[C@@H](CC(C)C)C(=O)N[C@@H](C)C(=O)N[C@H](C)C(=O)N(C)[C@@H](CC(C)C)C(=O)N(C)[C@@H](CC(C)C)C(=O)N(C)[C@@H](C(C)C)C(=O)N1C [Compound 2.5.17, 3-[D-Ala]-4-[(2S,3R)-4-(3-methoxyazetidin-1-yl)-3-methyl-2-(methylamino)butanoyl]-cyclosporin] (cyclo(A[dA][NMeL][NMeL][NMeV][MeBmt][Abu][dNMeA][X23]V[NMeL])) | 0.044 µM | 1.9 | 17.6 µM | 0.9 | 0.001 µM | > 50 µM | 4.2 µM | – | –
CCCC[C@@H](C)[C@@H](O)[C@H]1C(=O)N[C@@H](CC)C(=O)N(C)[C@H](C)C(=O)N(C)[C@@H]([C@@H](C)CN2CCN(CCOC)CC2)C(=O)N[C@@H](C(C)C)C(=O)N(C)[C@@H](CC(C)C)C(=O)N[C@@H](C)C(=O)N[C@H](C)C(=O)N(C)[C@@H](CC(C)C)C(=O)N(C)[C@@H](CC(C)C)C(=O)N(C)[C@@H](C(C)C)C(=O)N1C [Compound 2.17.6, 1-dihydro-3-[D-Ala]-4[(2S,3S)-2-Amino-4-[4-(2-methoxy-ethyl)-piperazin-1-yl]-3-methyl-butanoyl]-cyclosporin] (cyclo(A[dA][NMeL][NMeL][NMeV][NMe(dihydroBmt)][Abu][dNMeA][X19]V[NMeL])) | 0.02 µM | 0.9 | 14.6 µM | 0.6 | 0.0005 µM | > 50 µM | 3.3 µM | – | –
C/C=C/C[C@@H](C)[C@@H](O)[C@H]1C(=O)N[C@@H](CC)C(=O)N(C)[C@H](C)C(=O)N(C)[C@@H]([C@@H](C)CN2CCN(C3COC3)CC2)C(=O)N[C@@H](C(C)C)C(=O)N(C)[C@@H](CC(C)C)C(=O)N[C@@H](C)C(=O)N[C@H](C)C(=O)N(C)[C@@H](CC(C)C)C(=O)N(C)[C@@H](CC(C)C)C(=O)N(C)[C@@H](C(C)C)C(=O)N1C [Compound 2.17.5, 3-[D-Ala]-4[(2S,3S)-2-Amino-3-methyl-4-(4-oxetan-3-yl-piperazin-1-yl)-butanoyl]-cyclosporin] (cyclo(A[dA][NMeL][NMeL][NMeV][MeBmt][Abu][dNMeA][X6]V[NMeL])) | 0.033 µM | 0.7 | 35.2 µM | 0.5 | 0.0004 µM | > 50 µM | 1.8 µM | – | –
C/C=C/C[C@@H](C)[C@@H](O)[C@H]1C(=O)N[C@@H](CC)C(=O)N(C)[C@H](C)C(=O)N(C)[C@@H]([C@H](C)CCC(C)(C)O)C(=O)N[C@@H](C(C)C)C(=O)N(C)[C@@H](CC(C)C)C(=O)N[C@@H](C)C(=O)N[C@H](C)C(=O)N(C)[C@@H](CC(C)C)C(=O)N(C)[C@@H](CC(C)C)C(=O)N(C)[C@@H](C(C)C)C(=O)N1C [Compound 2.12, 3-[D-Ala]-4-[(2S,3R)-6-hydroxy-3,6-dimethyl-2-(methylamino)heptanoyl]-cyclosporin] (cyclo(A[dA][NMeL][NMeL][NMeV][MeBmt][Abu][dNMeA][X18]V[NMeL])) | – | 2.1 | 7.1 µM | 1.1 | 0.0011 µM | > 50 µM | 2.2 µM | 0.08 µM | –
C/C=C/C[C@@H](C)[C@@H](O)[C@H]1C(=O)N[C@@H](CC)C(=O)N(C)[C@H](C)C(=O)N(C)[C@@H]([C@H](C)CO[C@H]2CCOC2)C(=O)N[C@@H](C(C)C)C(=O)N(C)[C@@H](CC(C)C)C(=O)N[C@@H](C)C(=O)N[C@H](C)C(=O)N(C)[C@@H](CC(C)C)C(=O)N(C)[C@@H](CC(C)C)C(=O)N(C)[C@@H](C(C)C)C(=O)N1C (stereo in doubt) [Compound 2.16] | – | 1.0 | 13.7 µM | 0.5 | 0.0004 µM | > 50 µM | 1.9 µM | 0.025 µM | –
C/C=C/C[C@@H](C)[C@@H](O)[C@H]1C(=O)N[C@@H](CC)C(=O)N(C)[C@H](C)C(=O)N(C)[C@@H]([C@@H](C)CN2CCN(C3CCC3)CC2)C(=O)N[C@@H](C(C)C)C(=O)N(C)[C@@H](CC(C)C)C(=O)N[C@@H](C)C(=O)N[C@H](C)C(=O)N(C)[C@@H](CC(C)C)C(=O)N(C)[C@@H](CC(C)C)C(=O)N(C)[C@@H](C(C)C)C(=O)N1C [Compound 2.17.3, 3-[D-Ala]-4[(2S,3S)-2-Amino-4-(4-cyclobutyl-piperazin-1-yl)-3-methyl-butanoyl]-cyclosporin] (cyclo(A[dA][NMeL][NMeL][NMeV][MeBmt][Abu][dNMeA][X12]V[NMeL])) | 0.031 µM | 0.5 | 6.7 µM | 0.4 | 0.0003 µM | > 50 µM | 4 µM | – | –
C/C=C/C[C@@H](C)[C@@H](O)[C@H]1C(=O)N[C@@H](CC)C(=O)N(C)[C@H](C)C(=O)N(C)[C@@H]([C@H](C)CN2CCN(C3CCC3)CC2)C(=O)N[C@@H](C(C)C)C(=O)N(C)[C@@H](CC(C)C)C(=O)N[C@@H](C)C(=O)N[C@H](C)C(=O)N(C)[C@@H](CC(C)C)C(=O)N(C)[C@@H](CC(C)C)C(=O)N(C)[C@@H](C(C)C)C(=O)N1C [Compound 2.5.14, 3-[D-Ala]-4[(2S,3R)-2-Amino-4-(4-cyclobutyl-piperazin-1-yl)-butanoyl]-cyclosporin] (cyclo(A[dA][NMeL][NMeL][NMeV][MeBmt][Abu][dNMeA][X22]V[NMeL])) | 0.032 µM | 1.0 | 8.1 µM | 0.7 | 0.0005 µM | > 50 µM | 5.2 µM | – | –
C/C=C/C[C@@H](C)[C@@H](O)[C@H]1C(=O)N[C@@H](CC)C(=O)N(C)[C@H](C)C(=O)N(C)[C@@H]([C@H](C)CCCN2CCOCC2)C(=O)N[C@@H](C(C)C)C(=O)N(C)[C@@H](CC(C)C)C(=O)N[C@@H](C)C(=O)N[C@H](C)C(=O)N(C)[C@@H](CC(C)C)C(=O)N(C)[C@@H](CC(C)C)C(=O)N(C)[C@@H](C(C)C)C(=O)N1C [Compound 2.19.1, 3-[D-Ala]-4-[(2S,3R)-3-methyl-2-(methylamino)-6-morpholinohexanoyl]-cyclosporin] (cyclo([MeBmt][Abu][dNMeA][X20]V[NMeL]A[dA][NMeL][NMeL][NMeV])) | – | 0.9 | 16.6 µM | 0.5 | 0.0005 µM | – | 6.9 µM | 0.038 µM | 17 M⁻¹ s⁻¹
